From publication PMC5983471 (PLoS ONE, 2018)
≈ marks a conversion by molar mass, not a printed value. Where “and” joins values, the source holds several entries; their conditions need not be identical. Equal entries are not always repeated. Entries after “also recorded” stand apart in the source; their conditions may differ. Where two headings read alike, the source gives them in different places.

Columns and labels:
[1] = system: enzalutamide-resistant LNCaP cells engineered to maintain Stat3 activation; settings: cited from earlier work
metastatic CRPC (PSA) = experiment: On-study PSA changes; type: in vivo, human
From the text: The primary objective was to assess safety.

DU145 = settings: cited from earlier work
AR-V7+ CWR22Rv1 cells = settings: 81.8 ng/mL; cited from earlier work
[2] = published pharmacokinetics data; cited from earlier work
[3] = Phase I dose-escalation: adverse events and dose-limiting toxicities (CTCAE v4.0)
Procedure: All patients were required to have mCRPC (i.e., disease progression in spite of serum testosterone ≤50 ng/dL) and had received prior abiraterone. Patients were originally required to have detectable AR-V transcripts in circulating tumor cells (CTC) as determined using the AdnaTest assay[9]. […] The primary objective was to assess safety.
We utilized the continual reassessment method (CRM) to evaluate dose-related toxicities and to determine the recommended Phase II dose[37]. We targeted a maximum of 30% of patients incurring dose-limiting toxicities (DLT) up to 30 days after the final (day-28) dose. […] Adverse events (AEs) were documented by incidence and their severity was graded according to the National Cancer Institute–Common Terminology Criteria for Adverse Events (CTCAE) version 4.0. The pharmacokinetic data underwent non-compartmental analysis using Phoenix WinNonlin version 8.0 (Certara USA, Inc; Princeton, NJ), and key pharmacokinetic parameters (e.g., Cmax, Cmin, Css and t1/2) were extracted.

[4] = prior experience; ref 27,60 (S1 Protocol); cited from earlier work
[5] = ref 27,71 (S1 Protocol); cited from earlier work
[6] = system: enzalutamide-resistant, AR-V7+ C4-2B cells; settings: co-cultured with 81.8 ng/mL; cited from earlier work
[7] = Plasma niclosamide pharmacokinetics (LCMS, non-compartmental analysis); type: in vivo, human
Procedure: Blood for pharmacokinetic analyses were drawn at the following time points after the first dose: 0.5 hr, 1 hr, 1.5 hr, 2 hr, 3 hr, 4 hr, 6 hr, 8 hr and on Day 15. […] After vortexing, the samples were centrifuged at 20000 x G for 10 minutes at 4°C. The supernatant was transferred to a 96-well plate and 2 μL were injected on the liquid chromatography mass spectrometry (LCMS) system. The LCMS system was an ultrapressure liquid chromatography (Agilent (Santa Clara, CA) 1290 series) coupled to an Agilent G6410B triple-quadrupole mass spectrometer. The column was an Agilent Zorbax SB-C18 2.1 mm x 150 mm x 5μ maintained at 45°C. Mobile phase A was 10 mM ammonium formate (pH = 3) and mobile phase B was acetonitrile in the ratio of 35% A: 65% B at 0.4 mL/min.

[8] = system: AR-V7 prostate cancer models; set-up: method as in ref 28,29 (S1 Protocol); settings: combined with enzalutamide or abiraterone; ref 28,29 (S1 Protocol); cited from earlier work
[9] = system: AR-V7 prostate cancer models; set-up: method as in ref 28 (S1 Protocol, Liu et al, 2014); settings: in vitro, 48 hours exposure; ref 28 (S1 Protocol, Liu et al, 2014); cited from earlier work
[10] = system: abiraterone and/or enzalutamide-resistant models, including AR-V7+ cell lines; settings: cited from earlier work
[11] = rats; ref 62 (S1 Protocol, WHO/VBC/DS/88.63); cited from earlier work
[12] = AE possibly/probably related, 500 mg PO TID + enzalutamide, Pt# 1, 17, 18
[13] = AE possibly/probably related, 1000 mg PO TID + enzalutamide, Pt# 19, 20
[14] = first dose 500 mg PO, plasma, individual patients Pt# 1, 17, 18
[15] = first dose 500 mg PO, Pt# 1, 17, 18
[16] = first dose 1000 mg PO, plasma, individual patients Pt# 19, 20
[17] = first dose 1000 mg PO, Pt# 19, 20

SMILES: O=C(Nc1ccc([N+](=O)[O-])cc1Cl)c1cc(Cl)ccc1O [niclosamide, 2',5-dichloro-4'-nitrosalicylanilide]
- concentrations at which cells were growth inhibited [1]: ≥ 163.5 ng/mL
- PSA Day 29 (metastatic CRPC (PSA); 1000 mg PO TID + enzalutamide, Pt# 19): 3009.49 ng/mL
- PSA Change (%) (metastatic CRPC (PSA); Day 1 to Day 29, 1000 mg PO TID + enzalutamide, Pt# 19): 101.7%
- PSA declines (metastatic CRPC (PSA); all dose cohorts, niclosamide + enzalutamide): no PSA declines; also recorded: no evidence for declining PSA
- clinical activity (metastatic CRPC (PSA); any patient enrolled, niclosamide + enzalutamide): no evidence of clinical activity
- IC50, decreased cell proliferation (DU145): 0.33 µg/mL (≈ 1.01 µM)
- growth inhibition (AR-V7+ CWR22Rv1 cells): did not demonstrate significant growth inhibition
- oral bioavailability [2]: poor oral bioavailability
- patients with any toxicities deemed at least possibly related to niclosamide ([3]; 500 mg PO TID cohort): one out of three
- dose-limiting toxicities (DLTs) ([3]; 500 mg PO TID cohort, 3 patients, + enzalutamide): no dose-limiting toxicities; also recorded: No DLTs observed
- tolerability ([3]; 500 mg PO TID in combination with enzalutamide): well tolerated
- Nausea (Grade) ([3]; AE possibly/probably related, 500 mg PO TID + enzalutamide 160 mg daily, Pt# 1, 17, 18): 1 Grade
- Anorexia (Grade) [3, 12]: 1 Grade
- Weight loss (Grade) [3, 12]: 1 Grade
- Nausea (Grade) ([3]; AE possibly/probably related, 1000 mg PO TID + enzalutamide 160 mg daily, Pt# 19, 20): 3 Grade and 3 ^* Grade and 2 Grade
- Abdominal pain (Grade) [3, 13]: 3 Grade
- Anorexia (Grade) [3, 13]: 1 Grade
- Colitis (Grade) [3, 13]: 3 Grade and 3 ^** Grade
- Diarrhea (Grade) [3, 13]: 3 Grade
- Lipase elevation (Grade) [3, 13]: 2 Grade
- Vomiting (Grade) [3, 13]: 3 Grade
- maximum tolerated dose ([3]; PO TID, in combination with enzalutamide 160 mg daily): 500 mg
- patients with gastrointestinal side effects (nausea, vomiting and stomach pain) [4]: ~ 10%
- solubility in acetone [5]: soluble
- solubility in ethanol, chloroform, or ether [5]: sparingly soluble
- solubility in water [5]: almost insoluble
- growth inhibition [6]: growth inhibited
- patients achieving a Cmax ≥163.5 ng/mL ([7]; 500 mg PO TID cohort): one of three
- patients achieving a Cmax ≥163.5 ng/mL ([7]; 1000 mg PO TID cohort): one of two
- Cmax [7, 14]: 35.7 ng/mL and 88.3 ng/mL
- Tmax [7, 14]: 6 h and 2 h and 1 h
- % of AUC0-∞ extrapolated [7, 15]: 26.6% and 13.7% and 17.2%
- Cmin [7, 15]: 13.3 ng/mL and 6.92 ng/mL and 7.42 ng/mL
- Tmin [7, 15]: 4 h and 8 h
- Cmax [7, 16]: 149 ng/mL
- Tmax [7, 16]: 1 h and 6 h
- First dose AUC0-∞ ([7]; first dose 1000 mg PO, Clast/elimination rate constant used for extrapolation, Pt# 19, 20): 986 ng·h/mL
- % of AUC0-∞ extrapolated [7, 17]: 36.0% and 36.2%
- Apparent oral clearance (clearance divided by fraction absorbed) [7, 17]: 14.9 L/hr per kg of IBW
- Cmin [7, 17]: 45.5 ng/mL and 90.0 ng/mL
- First dose AUC0-τ [7, 17]: 629 ng·h/mL
- Tmin [7, 17]: 8 h
- Cmax ([7]; human, plasma, po, 1000 mg, first dose 1000 mg PO, plasma, individual patients Pt# 19, 20, read-out: Cmax): 182 ng/mL
- AUC(0-inf) ([7]; human, plasma, po, 1000 mg, first dose 1000 mg PO, Clast/elimination rate constant used for extrapolation, Pt# 19, 20, read-out: First dose AUC0-∞): 1060 ng·h/mL
- CL/F ([7]; human, plasma, po, 1000 mg, first dose 1000 mg PO, Pt# 19, 20, read-out: Apparent oral clearance (clearance divided by fraction absorbed) (converted)): 203 mL/min/kg
- AUC ([7]; human, plasma, po, 1000 mg, first dose 1000 mg PO, Pt# 19, 20, read-out: First dose AUC0-τ): 676 ng·h/mL
- CL/F ([7]; male, human, plasma, po, 1000 mg, all 5 patients, 500 and 1000 mg cohorts, read-out: apparent oral clearance (CL/F), range over patients): 152 to 630 mL/min/kg
- anti-tumor effect of combination [8]: synergistic
- lowest concentration inducing apoptosis / inhibiting cell line growth [9]: ≥ 0.25 µg/mL
- concentrations that consistently inhibited cell growth [10]: ≥ 163.5 ng/mL
- lowest concentration inhibiting some AR-V7+ cell lines [10]: ≥ 81.8 ng/mL
- oral LD50 [11]: > 5,000 mg/kg body weight
